The source of these data is patent publication US20170121344A1 (Siga Technologies, Inc., priority 2009, published 2017).

The test system of this assay is Dengue-2 (Strain New Guinea C). Description: Viral yield assay against Dengue-2 in Vero cells. The format is cell-based, Dengue virus. The following applies: Dengue virus; for pEC50: read-out: Activity (EC50 class) against Dengue-2 Virus in Vero cells; for EC50: DENV2, read-out: Activity (EC50 in μM) DENV-2. In a few lines: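 Vero cells were infected with dengue-2 at MOI 0.1, treated with compound (DMSO control), and kept at 37° C. They were harvested 48 hours post infection and yield was titered on Vero cells. EC50 came from the yield curve, and the other serotypes were run in a similar way.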

Where [1] appears, read: Vero cells, MOI 0.1, harvested 48 hours post infection.
Setting [2] is: viral yield assay, Vero cells, MOI 0.1, 48 hours post infection.

pEC50: −log10 of the molar value. Where two headings read alike, the source gives them in different places.

Consider `CN1CCc2nc3sc(C(=O)Nc4ccc(OC(F)(F)F)cc4)c(N)c3cc2C1` [Compound 30, 3-Amino-6-methyl-5,6,7,8-tetrahydro-thieno[2,3-b][1,6]naphthyridine-2-carboxylic acid (4-trifluoromethoxy-phenyl)-amide], for which the pEC50 under setting [1] was more than 5.30.
As to `COCc1cc(C)nc2sc3c(=O)n(-c4cccc5ccccc45)nnc3c12` [Compound 150, 9-Methoxymethyl-7-methyl-3-naphthalen-1-yl-3H-pyrido[3′,2′:4,5]thieno[3,2-d][1,2,3]triazin-4-one], where the note is “Vero, 48 h”, the pEC50 is less than 4.60.
For `CCc1cccc(NC(=O)c2sc3nc(-c4ccc5c(c4)OCO5)ccc3c2N)c1` [Compound 592, 3-amino-6-(1,3-benzodioxol-5-yl)-N-(3-ethylphenyl)thieno[2,3-b]pyridine-2-carboxamide], the EC50 under setting [2] was less than 5 µM.
For the compound `CC1(C)CC(=O)c2cc3c(N)c(C(=O)Nc4ccc([N+](=O)[O-])cc4)sc3nc2C1` [Compound 214, 3-Amino-7,7-dimethyl-5-oxo-5,6,7,8-tetrahydro-thieno[2,3-b]quinoline-2-carboxylic acid (4-nitro-phenyl)-amide], under setting [1], the negative-log EC50 (pEC50) is less than 4.60.
On to `Cc1nc2c(sc3nc4c(cc32)COC(C)(C)C4)c(=O)n1CCc1ccccc1` [Compound 230, 3,8,8-Trimethyl-2-phenethyl-8,9-dihydro-2H,6H-7-oxa-11-thia-2,4,10-triaza-benzo[b]fluoren-1-one], for which the pEC50 (Vero, 48 h) was less than 4.60.
As to `CC(=O)c1cnc2sc(C(=O)NCc3ccc(CN(C)C)cc3)c(C)c2c1` [Compound 400], under setting [2], the EC50 was less than 5 µM.
Regarding `COCc1cc(C)nc2sc(C(=O)Nc3cccc(C(F)(F)F)c3)c(N)c12` [Compound 98, 3-Amino-4-methoxymethyl-6-methyl-thieno[2,3-b]pyridine-2-carboxylic acid (3-trifluoromethyl-phenyl)-amide], the pEC50 (Vero, 48 h) is 4.60 to 5.30.
With `Nc1c(C(=O)Nc2ccc(F)c(Cl)c2)sc2nc(-c3ccc4c(c3)OCO4)ccc12` [Compound 595, 3-amino-6-(1,3-benzodioxol-5-yl)-N-(3-chloro-4-fluoro-phenyl)thieno[2,3-b] pyridine-2-carboxamide], under setting [2], the EC50 was less than 5 µM.
On to `Cc1ccc2c(n1)sc1c(=O)n(-c3cccc(Br)c3)nnc12` [Compound 479, 3-(3-bromophenyl)-7-methylpyrido[3′,2′:4,5]thieno[3,2-d] [1,2,3]triazin-4(3H)-one], for which, under setting [2], the EC50 is less than 5 µM.
Consider `NC(=O)c1sc2nc(-c3ccccc3)ccc2c1N` [Compound 161, 3-Amino-6-phenyl-thieno[2,3-b]pyridine-2-carboxylic acid amide], for which the pEC50 under setting [1] is less than 4.60.
`Nc1c(C(=O)Nc2ccccc2C(F)(F)F)sc2nc(-c3ccncc3)ccc12` [Compound 480, 3-amino-6-(4-pyridyl)-N-[2-(trifluoromethyl)phenyl]thieno[2,3-b] pyridine-2-carboxamide]: the EC50 under setting [2] is less than 5 µM.
For the compound `Cc1cc(C)c2c(N)c(C(=O)Nc3cccc(C)c3C)sc2n1` [Compound 181, 3-Amino-4,6-dimethyl-thieno[2,3-b]pyridine-2-carboxylic acid (2,3-dimethyl-phenyl)-amide], the pEC50 (Vero, 48 h) was less than 4.60.
In the case of `CCc1ccccc1NC(=O)c1sc2nc3c(c(-c4ccco4)c2c1N)CCC3` [Compound 219, 3-Amino-4-furan-2-yl-6,7-dihydro-5H-cyclopenta[b]thieno[3,2-e]pyridine-2-carboxylic acid (2-ethyl-phenyl)-amide], the pEC50 under setting [1] is less than 4.60.
For `CN(C)CCN(C(=O)c1sc2nc(-c3cccs3)ccc2c1N)c1cccc(C(F)(F)F)c1` [Compound 323, 3-amino-N-(2-dimethylaminoethyl)-6-(2-thienyl)-N-[3-(trifluoromethyl)phenyl]thieno[2,3-b]pyridine-2-carboxamide], the EC50 under setting [2] is less than 5 µM.
On the same count and under the same terms, under `O=C1CN(c2cccc(C(F)(F)F)c2)C(=O)c2sc3nc(-c4cccs4)ccc3c2N1` [Compound 320] stands less than 5 µM.
Consider `CN1CCc2nc3sc(C(=O)NCc4ccc(F)cc4)c(N)c3cc2C1` [Compound 14, 3-Amino-6-methyl-5,6,7,8-tetrahydro-thieno[2,3-b][1,6]naphthyridine-2-carboxylic acid 4-fluoro-benzylamide], for which the pEC50 under setting [1] was more than 5.30.
`Nc1c(C(=O)N2CCOCC2)sc2nc3c(cc12)CCCCC3` [Compound 139, (3-Amino-6,7,8,9-tetrahydro-5H-1-thia-10-aza-cyclohepta[f]inden-2-yl)-morpholin-4-yl-methanone]: the pEC50 (Vero, 48 h) was less than 4.60.
Regarding `Nc1c(C(=O)Nc2ccc([N+](=O)[O-])cc2)sc2nc3c(cc12)CCC3` [Compound 215, 3-Amino-6,7-dihydro-5H-cyclopenta[b]thieno[3,2-e]pyridine-2-carboxylic acid (4-nitro-phenyl)-amide], the negative logarithm of the EC50 (pEC50) under setting [1] is less than 4.60.
For `Cc1ccc(-c2ccc3c(N)c(C(=O)Nc4ccccc4C)sc3n2)cc1` [Compound 637, 3-amino-N-(o-tolyl)-6-(p-tolyl)thieno [2,3-b]pyridine-2-carboxamide], the EC50 under setting [2] was less than 5 µM.
The same measure, in the same setting: under `Cc1ccc2c(N)c(C(=O)Nc3ccc(OC(F)(F)F)cc3)sc2n1` [Compound 457, 3-amino-6-methyl-N-[4-(trifluoromethoxy)phenyl]thieno[2,3-b] pyridine-2-carboxamide] stands 5 to 25 µM.
Same read-out and setting: under `Cc1ccc(-c2ccc3c(N)c(C(=O)Nc4ccc(F)cc4)sc3n2)cc1` [Compound 640, 3-amino-N-(4-fluorophenyl)-6-(p-tolyl) thieno[2,3-b]pyridine-2-carboxamide] stands less than 5 µM.
Take `CN1CCc2nc3sc(C(=O)Nc4ccccc4)c(N)c3cc2C1` [Compound 48, 3-Amino-6-methyl-5,6,7,8-tetrahydro-thieno[2,3-b][1,6]naphthyridine-2-carboxylic acid phenylamide]: the pEC50 under setting [1] was more than 5.30.
Regarding `CN(C)CCNc1c(C(=O)Nc2nnc(-c3ccccc3)s2)sc2nc3c(cc12)CCCCC3` [Compound 315, 3-((2-(dimethylamino)ethyl)amino)-N-(5-phenyl-1,3,4-thiadiazol-2-yl)-6,7,8,9-tetrahydro-5H-cyclohepta[b]thieno [3,2-e]pyridine-2-carboxamide], the 50% effective concentration (EC50) (Vero cells) was less than 5 µM.
Take `CN1CCc2nc3sc(C(=O)NCCc4c[nH]c5ccccc45)c(N)c3cc2C1` [Compound 32, 3-Amino-6-methyl-5,6,7,8-tetrahydro-thieno[2,3-b][1,6]naphthyridine-2-carboxylic acid [2-(1H-indol-3-yl)-ethyl]-amide]: the pEC50 under setting [1] is more than 5.30.
Still for that read-out and setting: under `Cc1cccc(NC(=O)c2sc3nc4c(cc3c2N)CCCCC4)c1` [Compound 117, 3-Amino-6,7,8,9-tetrahydro-5H-1-thia-10-aza-cyclohepta[f]indene-2-carboxylic acid m-tolylamide] stands less than 4.60.
Same read-out and setting: to `NC(=O)c1sc2nc3c(cc2c1N)CCCCC3` [Compound 82, 3-Amino-6,7,8,9-tetrahydro-5H-1-thia-10-aza-cyclohepta[f]indene-2-carboxylic acid amide] belongs 4.60 to 5.30; to `CCc1nc2sc(C(=O)Nc3cccc(C(F)(F)F)c3)c(N)c2cc1C` [Compound 93, 3-Amino-6-ethyl-5-methyl-thieno[2,3-b]pyridine-2-carboxylic acid (3-trifluoromethyl-phenyl)-amide], 4.60 to 5.30.
With `Cc1ccc(Cl)cc1NC(=O)c1sc2nc(-c3ccc(F)cc3)ccc2c1N` [Compound 621, 3-amino-N-(5-chloro-2-methyl-phenyl)-6-(4-fluorophenyl)thieno[2,3-b]pyridine-2-carboxamide], under setting [2], the EC50 was less than 5 µM.
For the compound `Cc1ccc(-c2ccc3c(N)c(C(=O)Nc4ccccc4F)sc3n2)cc1` [Compound 649, 3-amino-N-(2-fluorophenyl)-6-(p-tolyl) thieno[2,3-b]pyridine-2-carboxamide], the EC50 under setting [2] is less than 5 µM.
For the compound `N#Cc1cc2c(N)c(C(=O)Nc3ccccc3F)sc2nc1N` [Compound 135, 3,6-Diamino-5-cyano-thieno[2,3-b]pyridine-2-carboxylic acid (2-fluoro-phenyl)-amide], the pEC50 under setting [1] was less than 4.60.
On to `COc1cccc(-c2ccc3c(N)c(C(=O)Nc4ccc(C)cc4Br)sc3n2)c1` [Compound 627, 3-amino-N-(2-bromo-4-methyl-phenyl)-6-(3-methoxyphenyl)thieno[2,3-b] pyridine-2-carboxamide], for which the EC50 under setting [2] is less than 5 µM.
Consider `Nc1c(C(=O)Nc2ccc(F)cc2)sc2nc3c(cc12)CCCCC3` [Compound 116, 3-Amino-6,7,8,9-tetrahydro-5H-1-thia-10-aza-cyclohepta[f]indene-2-carboxylic acid (4-fluoro-phenyl)-amide], for which the negative-log EC50 (pEC50) (Vero, 48 h) is less than 4.60.
Regarding `COc1ccc(-c2c(C#N)c(N)nc3sc(C(=O)Nc4ccc(F)cc4)c(N)c23)cc1OC` [Compound 84, 3,6-Diamino-5-cyano-4-(3,4-dimethoxy-phenyl)-thieno[2,3-b]pyridine-2-carboxylic acid (4-fluoro-phenyl)-amide], under setting [1], the pEC50 was 4.60 to 5.30.
`Cc1cc(C)c2c(N)c(C(=O)Nc3cccc4cccnc34)sc2n1` [Compound 121, 3-Amino-4,6-dimethyl-thieno[2,3-b]pyridine-2-carboxylic acid quinolin-8-ylamide]: under setting [1], the pEC50 is less than 4.60.
As for `Nc1c(C(=O)Nc2ccc(C(=O)O)cc2)sc2nc(-c3ccc(Cl)cc3)ccc12` [Compound 334, 4-[[3-amino-6-(4-chlorophenyl)thieno [2,3-b]pyridine-2-carbonyl]amino] benzoic acid], the EC50 under setting [2] was less than 5 µM.
In the case of `CC1(C)CC(=O)c2cc3c(N)c(C(=O)Nc4ccc5c(c4)OCO5)sc3nc2C1` [Compound 226, 3-Amino-7,7-dimethyl-5-oxo-5,6,7,8-tetrahydro-thieno[2,3-b]quinoline-2-carboxylic acid benzo[1,3]dioxol-5-ylamide], the pEC50 under setting [1] is less than 4.60.

A word on the pEC50: it is −log10 of the EC50, conventionally taken in molar units. As usually defined, the EC50 is the midpoint of the concentration-response curve.
